Experimental data taken from patent US20230203485A1, “METHODS FOR MODULATING MHC-I EXPRESSION AND IMMUNOTHERAPY USES THEREOF” (Dana-Farber Cancer Institute, Inc., priority 2020, published 2023).

Experiments:
surface HLA-I = assay: Interferon treatment of MCC lines, surface HLA-I by flow cytometry; type: cell-based, human
Method: (§1) Cells were dissociated with Versene and incubated with 5 μL Human TruStain FcX (Fc Receptor Blocking Solution; Biolegend #422302) per million cells in 100 μL at room temperature for 10 min. Fluorophore-conjugated antibodies or respective isotype controls were added and incubated for another 30 min at 4° C. Cells were then washed once with PBS and resuspended in PBS or 4% paraformaldehyde and analyzed on an LSR Fortessa cytometer. For HLA-I and HLA-II detection, the following antibodies were used: HLA-ABC (W6/32 clone) conjugated to PE (BioLegend #311406), APC (BioLegend #311410), or AF647 (Santa Cruz Biotechnology #sc32235 AF647), and HLA-DR-FITC (BioLegend #307604).

HLA-DR = assay: IFN-γ treatment, HLA-DR by flow cytometry; type: cell-based, human; details: MCC-301 cell line
Method: as §1

Substance: IFN-γ: interferon gamma used to stimulate MCC cell lines
- fold increase in MFI of HLA-I after IFN-γ exposure (surface HLA-I; 8 lines): ≥ 2.5 fold
- median fold increase in MFI of HLA-I after IFN-γ exposure (surface HLA-I; 8 lines): 5.7 fold
- range of fold increase in MFI of HLA-I after IFN-γ exposure (surface HLA-I; 8 lines): 2.5-12.4 fold
- fold increase in MFI of HLA-I after IFN-γ exposure (surface HLA-I; three lines (MCC-336, -350, -358)): ≤ 1.15 fold
- HLA-DR expression (HLA-DR): upregulated
